Values quoted from earlier work as cited in patent publication US6313179A, “Treatment of hyperproliferative skin disorders with C18 to C20 aliphatic alcohols” (Avanir Pharmaceuticals, priority 1998, dated 2001).

Details: oral ingestion; U.S. Pat. No. 3,031,376; cited from earlier work

| Structure (SMILES) | physical performance of athletes |
| --- | --- |
| CCCCCCCCCCCCCCCCCCCCCCCCO [n-tetracosanol] | improved physical performance of athletes |
| CCCCCCCCCCCCCCCCCCCCCCCCCCCCCCO [triacontanol, reference compound] | improved physical performance of athletes |
| CCCCCCCCCCCCCCCCCCCCCCCCCCO [n-hexacosanol] | improved physical performance of athletes |
| CCCCCCCCCCCCCCCCCCCCCCCCCCCCO [n-octacosanol, reference compound] | improved physical performance of athletes |
